# Laboratory results published in patent EP4436951B1, “USE OF AURANTIAMIDE ACETATE IN THE TREATMENT OF HYPERTENSION” (Akdeniz Universitesidoner Sermaye Isletme Mudurlugu, priority 2021, dated 2023).
# Assays:
# [1] = system: Thoracic Aorta; test: Vascular tone of isolated thoracic aorta rings in organ bath after 4-week treatment (KCl, Phe, ACh and SNP protocols); assay type: in vivo, Wistar rats
# Description: (§1) 5 experimental groups were formed to observe the effects of aurantiamide acetate. Eight […] male Wistar rats were used in each group. The experimental groups created are as follows: • 1. Control group, • 2. SHAM operated (the abdominal cavity is opened and closed by suturing again without any procedure) group, • 3. Aurantiamide acetate (ASP) administered group, • 4. Hypertension (HT) group, • 5. Hypertension+aurantiamide acetate (HT+ASP) administered group.
# (§2) Aurantiamide acetate was applied to the ASP and HT+ASP groups among the experimental groups. A 100 mM stock was prepared by dissolving 10 mg of aurantiamide acetate in 225 µl of dimethyl sulfoxide (DMSO). For 200 g rat, µl of aurantiamide acetate was administered in 100 µl. Weekly 2.5 mg/kg of aurantiamide acetate was administered intraperitoneally for 4 weeks, 0.5 mg/kg daily, 5 days a week. In total, each rat was given 10 mg/kg of aurantiamide acetate. To eliminate the effects of daily intraperitoneal (i.p.) injection; equal volumes (100 µl) of i.p.DMSO were injected into the rats of control group, SHAM-operated group, and hypertension group. Changes in body weight, blood pressure values, erythrocyte deformability, vascular isolation, and vascular tone were investigated in the experimental groups during the experiment.
# Vascular isolation was investigated in the experimental groups. The rats in all experimental groups were anesthetized with intraperitoneal ketamine/xylazine (45 mg/kg ketamine and 10 mg/kg xylazine) anesthesia at the end of the 4-week experimental period. After their abdomens were opened, blood was drawn from their abdominal aorta to obtain plasma as well as for use in measuring deformability, and rats were sacrificed by anemia. The thoracic aorta was quickly opened and the thoracic aorta was separated from the other tissues, and removed. As soon as the thoracic aorta tissue is removed, it was taken into a beaker containing Krebs solution (110 mM sodium chloride (NaCl), 5 mM potassium chloride (KCI), 24 mM sodium bicarbonate (NaHCO3), 1 mM mono potassium phosphate (KH2PO4), 1 mM magnesium sulfate heptahydrate (MgSO4.7H2O), 2.5 mM calcium chloride (CaCl2), 10 mM glucose, 0.02 mM ethylenediamine tetraacetic acid (EDTA); pH=7.4). After the tissue was washed with cold Krebs, the dissection stage was started. For the microdissection stage, the thoracic aorta, taken in a petri dish containing cold Krebs, is fixed to the medium, and fat and connective tissue were removed from the artery at the appropriate magnification by using a dissecting microscope. The isolated thoracic aorta is divided into rings of appropriate length. In addition, the rest of the aorta tissue was removed and stored under appropriate conditions for histological and biochemical parameters. Vascular tone was evaluated in the experimental groups. Vascular tone in the experimental groups was analyzed as in the previous work of the project team. After the isolated thoracic aorta is divided into 2 - 2.5 mm long rings; it was gasified with a gas mixture containing 95% O2 - 5% CO2, and it was placed in an organ bath with 10 ml of Krebs solution at 37°C and pH 7.4. After the vessel rings are attached to the isometric transducer by means of a tight rope by hanging them on steel wires, they were washed every 15 minutes under 1 gram relaxation tension and rested for a total of 60 minutes. If the tension changed after each wash, attention was paid to bring it back to 1 gram of tension. After a one-hour relaxation tension (rest period), the vitalization stage, which is the prepulse stage, was applied to the vessels. For this process, after applying Krebs solution containing 20 mM potassium chloride (KCI), phenylephrine (Phe) was added at a concentration of 10^-7 M. This process was repeated 3 times in succession. After the vitalization procedure, the vessels were washed with Krebs solution and an additional 30-minute resting period was started. […]
# [2] = system: 2K-1C renovascular hypertension; test: Blood pressure by non-invasive tail-cuff method in rats, Goldblatt two kidneys single clip (2K-1C) hypertension model; assay type: in vivo, Wistar rats
# Description: as §1
# Hypertension was induced in rats with the Goldblatt model with two kidneys and a single clip (2K-1C). In this model, no operation was performed on the right kidney. The left renal artery was narrowed to 0.22 mm in diameter. In the surgical hypertension model created, renin secretion by the kidney with decreased blood flow led to increased angiotensin II (ANG II) formation and therefore an increase in blood pressure. Sodium excretion by the intact contralateral kidney increases as blood pressure increases (pressure natriuresis), therefore, there was no sodium retention. The rats were anesthetized intraperitoneally before the operation. In the creation of the hypertension model, 90 mg/kg ketamine and 10 mg/kg xylazine were administered intraperitoneally for anesthesia. After anesthesia, the abdomens of the rats were shaved and disinfected with betadine. After disinfection, a midline incision was made and the left kidney was exposed. The left renal artery was isolated from the renal vein, and to induce 2K-1C renovascular hypertension, the circumference of the left renal artery was narrowed gently to 0.22 mm in diameter by 5/0 non-absorbable silicone-coated silk sutures The same procedure was applied to SHAM operated group rats, but the left renal artery was not narrowed. Postoperatively, the peritoneum was sutured with 3/0 absorbable polyglycan suture and the skin layer was sutured with 3/0 non-absorbable silk suture. In the hypertension model, it was waited for 1 week to observe the increase in blood pressure in the hypertension and hypertension+aurantiamide acetate groups, and then blood pressure was measured.
# The blood pressures of the animals were measured by the non-invasive tail-cuff method. An occlusive cuff and a piezoelectric impact sensor are placed around the tail. Arterial blood pressure measurements were taken weekly at the same time of day (9:00 am to 12:00 am) to avoid influencing the circadian cycle. Basal blood pressure was measured after delivery of each rat, and blood pressures were recorded regularly every week for 4 weeks until sacrifice. The data acquisition system reported blood pressure (mmHg) as systolic, diastolic, and mean. Each measurement was repeated three times and the average of these three data was taken.
# as §2
# Blood pressure values were examined in the experimental groups during the experimental period.
# [3] = system: erythrocytes; test: Erythrocyte deformability by ektacytometer (laser diffraction) after 4-week treatment; assay type: in vivo, Wistar rats; conditions: 37°C
# Description: as §1
# Aurantiamide acetate was applied to the ASP and HT+ASP groups among the experimental groups. A 100 mM stock was prepared by dissolving 10 mg of aurantiamide acetate in 225 µl of dimethyl sulfoxide (DMSO). For 200 g rat, µl of aurantiamide acetate was administered in 100 µl. Weekly 2.5 mg/kg of aurantiamide acetate was administered intraperitoneally for 4 weeks, 0.5 mg/kg daily, 5 days a week. In total, each rat was given 10 mg/kg of aurantiamide acetate. […]
# Erythrocyte deformability was measured in the experimental groups. […] Erythrocyte deformability was evaluated by laser diffraction analysis at various fluid shear forces. […] Thus, the deformability of erythrocytes in response to increased shear forces was determined. […] The erythrocyte deformability was calculated by the system as an elongation index. Elongation index (EI) values were measured between nine shear forces (0.30 - 75.02 Pa). […]
# [4] = Change in body weight during the administration period; assay type: in vivo, Wistar rats; conditions: between the experimental groups, Day 0 and end of 4th week
# Description: as §1
# as §2, with “Changes in body weight, blood pressure values, erythrocyte deformability, vascular isolation, and vascular tone were investigated in the experimental groups during the experiment.” left out
# The initial weights of the rats were measured in the range of 180-200 g. The weights of each rat before the experiment (Day 0) and after the experiment (at the end of the 4th week) were recorded. […]
# [5] = cited from earlier work; for decrease in concentrations: 4 hours after administration; for decrease in concentrations / time to maximum plasma concentration / accumulation in tissues: rats; for decrease in concentrations / accumulation in tissues: oral; for toxic effects: administrations up to 100mg/kg; for time to maximum plasma concentration: oral administration of Portulaca oleracea L extracts
# [6] = aurantiamide acetate group (no hypertension) vs control and SHAM, p>0.05
smiles,measurement,setting,value
CC(=O)OC[C@H](Cc1ccccc1)NC(=O)[C@H](Cc1ccccc1)NC(=O)c1ccccc1 [aurantiamide acetate],ACh-mediated relaxation response (endothelium-dependent),[1]; [6],no difference
same,Phe-mediated contractile response,[1]; [6],no differences
same,SNP-mediated relaxation response (endothelium-independent),[1]; [6],no statistical difference
same,KCl-mediated contractile response,"[1]; aurantiamide acetate group (no hypertension) vs control, SHAM and hypertension groups, 20, 40 and 80 mM KCl, p>0.05",no differences
same,Phe-mediated contractile response,"[1]; hypertension+aurantiamide acetate group compared to hypertension group, p<0.05 and p<0.001",significantly reduced
same,SNP-mediated relaxation response (endothelium-independent),"[1]; hypertension+aurantiamide acetate group compared to hypertension group, p>0.05",no difference
same,KCl-mediated contractile response,"[1]; hypertension+aurantiamide acetate group compared to the other groups, increasing KCl concentrations, p<0.001",significantly lower
same,ACh-mediated relaxation response (endothelium-dependent),"[1]; hypertension+aurantiamide acetate group vs hypertension group, p<0.05 and p<0.01",improvement
same,mean arterial blood pressure,"[2]; ASP group (no hypertension), second week, compared with control and SHAM operated groups, p<0.05, 0.5 mg/kg daily i.p., 5 days a week",significantly lower
same,mean arterial blood pressure,"[2]; ASP group (no hypertension), third week, compared with control group, p<0.05, 0.5 mg/kg daily i.p., 5 days a week",significantly lower
same,mean arterial blood pressure,"[2]; HT+ASP group, last week (week 4), compared to HT group, p<0.001",significant decrease
same,mean arterial blood pressure,"[2]; HT+ASP group, second week, compared to HT group, p<0.001, 0.5 mg/kg daily i.p., 5 days a week",significant decrease
same,mean arterial blood pressure,"[2]; HT+ASP group, second week, compared with control, SHAM and ASP groups, p<0.001",significantly higher
same,mean arterial blood pressure,"[2]; HT+ASP group, third week, compared to HT group, p<0.001",significant decrease
same,mean arterial blood pressure,"[2]; HT+ASP group, third week, compared with ASP group only, p<0.001",significantly higher
same,mean arterial blood pressure,"[2]; HT+ASP group, week 4, no difference from control, SHAM and ASP groups (p>0.05)",reduced to basal levels
same,mean arterial blood pressure,"[2]; within ASP group according to the weeks, p>0.05",did not show a significant difference
same,"erythrocyte deformability, Elmax values",[3]; [6],no difference
same,erythrocyte deformability,"[3]; hypertension + aurantiamide acetate group compared to hypertension group, p<0.01",significant increase
same,body weights before and after,[4],no significant difference
same,decrease in concentrations,[5],approximately 90%
same,toxic effects,[5],No toxic effects
same,time to maximum plasma concentration,[5],approximately 12 minutes
same,accumulation in tissues,[5],no long-term accumulation
O=C(N[C@@H](Cc1ccccc1)C(=O)N[C@H](CO)Cc1ccccc1)c1ccccc1 [aurantiamide],decrease in concentrations,[5],approximately 90%
same,toxic effects,[5],No toxic effects
same,time to maximum plasma concentration,[5],approximately 12 minutes
same,accumulation in tissues,[5],no long-term accumulation
